No end group written: not given here.
Columns and labels:
ACE2 = settings: short peptide; ref not given ("It was reported"); cited from earlier work
Text: To date, only a small number of drug design studies have focused on the SARS-CoV-2 receptor, with a particular emphasis on ACE2 antagonists. Exogenous proteins have disadvantages such as low efficiency in drug delivery and immunogenicity, whereas small-molecule ligands pose limitations such as challenges for manufacturing and increased toxicity. Thus, direct interception of the amino acids of ACE2 could be a simple and effective method. The length of the ACE2-derived peptide (CSNP1) is 16 amino acids.

A549 cells = assay: MTT cytotoxicity, A549; type: cell-based, human; settings: 24 h; for cell viability: MTT, % of untreated cells
Procedure: (§1) Vero E6 and A549 cells were cultured in DMEM containing 10% FBS and 5% CO2 at 37 degrees centigrade (°C). The medium was renewed once every three days. The cells were passaged when they attained confluence.
(§2) The cytotoxicity of the functional peptide was assessed using the MTT test. The test cells were seeded onto 96-well plates and grown overnight. The functional peptide K5 was introduced at concentrations of 0.1, 1, 10, and 100 μM for a 24 h incubation. MTT was then added, and cells were incubated for an additional 2 h. The medium was removed and replaced with 100 μL of DMSO. A measurement of absorbance was conducted at 492 nm (OD492) using a microplate reader (EnSpire, Cleveland, OH, USA). Cells without treatment were set as blanks, and the results are expressed as a percentage of the untreated cells.

[1] = target: ACE2–S protein interaction (Vero E6 cells) (Chlorocebus aethiops, UniProt Q1LZX8); assay: Inhibition of S1 protein-ACE2 interaction, flow cytometry, Vero E6; type: cell-based, monkey; settings: K5 1 h pre-incubation, S1 protein 10 μg/mL 1 h
Vero E6 cells [2] = assay: MTT cytotoxicity, Vero E6; type: cell-based, monkey; settings: 24 h; for cell viability: MTT, % of untreated cells
Procedure: as §1, §2

Vero E6 cells [3] = assay: Cellular adsorption of FITC-labeled peptide (fluorescence microscopy); type: cell-based, monkey; settings: cells treated solely with FITC
Procedure: The cellular adsorption behaviors of K5 were examined using FITC-labeled peptide. Vero E6 cells were incubated in 24-well plates in medium containing 100 μM of FITC-labeled peptide for two different durations: 1 min and 1 h. Subsequently, the cells were washed three times using a PBS solution containing heparin, then stained with DAPI for 30 min. Finally, they were fixed using a 4% PFA solution and then observed using an inverted fluorescence microscope manufactured by Zeiss in Oberkochen, Germany. The control group consisted of cells with only functional peptides added or only FITC added.

For EDLFYQ [SAPs], the IC50 (ACE2) is listed as “at the mM level”.
KYPAY [K5, KYPAY] gave a cell viability (A549 cells; 0.1 μM) of 93%, a cell viability (A549 cells; 1 μM) of 100% and a cell viability (A549 cells; 10 μM) of 103%. For the same substance, the cell viability (A549 cells; 100 μM) was 101%, the “change in cell viability / toxicity” value (A549 cells; 0.1-100 μM, physiological pH, A549) was “no discernible change in cell viability” and the MFI reduction ([1]; FBS, 10 μM) was 50%. The MFI decrease ([1]; FBS, 100 μM) was 70%, the MFI decrease ([1]; PBS, 1 μM) was “approximately 25%” and the inhibition at 100 µM ([1]; Vero C1008, PBS, 100 μM, read-out: MFI decrease (inhibition)) was 78%. It also gave a cell viability (Vero E6 cells [2]; 0.1 μM) of 108%, a cell viability (Vero E6 cells [2]; 1 μM) of 105% and a cell viability (Vero E6 cells [2]; 10 μM) of 96%. For the same substance, the cell viability (Vero E6 cells [2]; 100 μM) was 94% and the “change in cell viability / toxicity” value (Vero E6 cells [2]; 0.1-100 μM, physiological pH, Vero E6) was “no discernible change in cell viability”.
In the case of fluorescein isothiocyanate [FITC], the “cellular adsorption (fluorescence), FITC alone” value (Vero E6 cells [3]) is reported as “did not exhibit any fluorescence”.
